Tests used:
Carboanhydrase II = Carboanhydrase II (Homo sapiens, UniProt P00918); conditions: fluorescent DNSA-Carboanhydrase II complex, 1:1; read-out: Dissoziationskonstante KD; cited from earlier work
Osteoklasten [1] = conditions: not told
Nierenzellen = experiment: Uptake into kidney cells, DNSA fluorescence displacement (Abb. 2); conditions: Nierenzellen with Carboanhydrase II
Source text: Das Maximum der Anregung der Fluoreszenz liegt bei einer Wellenlänge von 320 nm, das Maximum der Emission bei 470 nm. Diese Fluoreszenz läßt sich gut von der des ungebundenen DNSA unterscheiden, da diese grün und sehr viel schwächer ist. Sie hat ihr Emissionsmaximum bei 580 nm. Die Carboanhydrase bindet DNSA im stöchiometrischen Verhältnis 1:1.

Erythrozyten = assay type: cell-based; conditions: not told
Knochenresorption [2] = experiment: Serum calcium after injection of parathormone in rats; assay type: in vivo, Ratten; conditions: three days after a single dose of 10 mg/kg, Abb. 5
Source text: Die Hemmung der Knochenresorption in Ratten, die mit 1 behandelt wurden, kann an der Änderung der Calciumkonzentration im Serum nach Injektion von Parathormon demonstriert werden (Abb. 5).

Osteoklasten [3] = experiment: Bone resorption by osteoclasts settled on dentine slices (cell culture); assay type: cell-based
Knochenresooorption = experiment: Ovariectomised rats, osteoporosis model; assay type: in vivo, Ratten; conditions: several months
Knochenresorption [4] = experiment: Strontium excretion and tibia mineral content in strontium-loaded growing rats; assay type: in vivo, Ratten
Experimental: Wachsenden Ratten - 6 Wochen alt - wurden sechsmal in Abständen von drei Tagen jeweils 2 mg SrCl2 in physiologischer Kochsalzlösung subkutan injiziert. Die Tiere bauen das Strontium analog dem Calcium in den Knochen ein. Entsprechend der Rate des Knochenumbaus wird das Strontium über Harn und Fäces während eines längeren Zeitraums wieder ausgeschieden. Nach einer 14 tägigen Latenzzeit in der sie eine calciumarme Diät erhielten, wurden ihnen verschiedene Konzentrationen von 1 i.p. apliziert und die Ausscheidung des Strontiums atomabsorptionsspektroskopisch gemessen. Die Abb.
Nach Abschluß des Versuches wurden die Tibiae präpariert und deren Gehalt an Calcium, Strontium und Phosphat bestimmt.

[5] = target: Isoenzym Carboanhydrase II (Homo sapiens, UniProt P00918); experiment: Inhibition constant for carbonic anhydrase II; assay type: biochemical; conditions: Isoenzym Carboanhydrase II expressed in osteoclasts; read-out: Inhibitorkonstante KI

SMILES	Kd (Carboanhydrase II)	membrane permeability (Osteoklasten [1])	uptake into cells (Nierenzellen)	permeability of the cell membrane (Erythrozyten)	knochenauflösende Wirkung von Parathormon (Calciumkonzentration im Serum) (Knochenresorption [2])	resorption (Osteoklasten [3]; in the presence of osteoclast-activating hormones)	resorption (Osteoklasten [3]; osteoclasts on Dentinplättchen)	Hemmwirkung auf die Knochenresooorption (Knochenresooorption)	Nebenwirkungen (Knochenresooorption)	Strontiumausscheidung (Knochenresorption [4]; rats, various concentrations i.p., after SrCl2 loading and low-calcium diet, Abb. 3)	Gehalt an Calcium, Strontium und Phosphat (Tibiae) (Knochenresorption [4]; versus control group, at the end of the experiment, Abb. 4)	Ki [5]
CN(C)c1cccc2c(S(N)(=O)=O)cccc12 [DNSA]	240 nM	kann Zellmembranen passieren	–	–	–	–	–	–	–	–	–	–
CCOc1ccc2nc(S(N)(=O)=O)sc2c1 [Ethoxzolamid, 6-Ethoxybenzothiaziol-2-sulfonamid, reference compound]	–	–	aufgenommen	–	–	–	–	–	–	–	–	–
NS(=O)(=O)c1ccc(CNC(=S)Nc2ccc(OC3OC(CO)C(O)C(O)C3O)cc2)cc1 [compound 1, N-α-D-Mannopyranosylphenyl-N'-p-amidosulfonylbenzylthioharnstoff]	–	–	nicht aufgenommen	teilweise für 1 durchlässig	vollständig blockiert	keine Resorption mehr	hören sie auf zu resorbieren	Hemmwirkung	keine Nebenwirkungen	Erniedrigung der Strontiumausscheidung	deutlich höhere Konzentration	800 nM
